These results are taken from US20180230160A1, “2-AMINO-7A-PHENYL-3,4,4A,5,7,7A-HEXAHYDROFURO[3,4-B]PYRIDINES AS BACE1 INHIBITORS” (H. Lundbeck A/S, priority 2015, published 2018).

Like-named read-outs stand apart in the source and are kept apart here.

One data set concerns P-gp (MDR1). Kind of data set: MDCK-MDR1 assay (permeability, efflux ratio). The data set is classed as in vitro ADME. As to conditions: dog, Papp BA/Papp AB, 60-minute incubation. The protocol: The permeability of the test compounds was assessed in MDCK-MDR1 cells that were cultured to confluency (4-6 days) in a 96 transwell plate. Test compounds were diluted with the transport buffer (HBSS+1% BSA) to a concentration of 0.5 μM and applied to the apical or basolateral side of the cell monolayer. Permeation of the test compounds from A to B direction or B to A direction was determined in triplicate over a 60-minute incubation time at 37° C. and 5% CO2 with a relative humidity of 95%. Test compounds were quantified by LC-MS/MS analysis based on the peaks area ratios of analyte/IS in both the receiver and donor wells of the transwell plate. The apparent permeability coefficient Papp (cm/s) was calculated using the equation: […]
Where dCr/dt is the cumulative concentration of compound in the receiver chamber as a function of time (μM/s); Vr is the solution volume in the receiver chamber (0.05 mL on the apical side; 0.25 mL on the basolateral side); A is the surface area for the transport, i.e. 0.0804 cm^2 for the area of the monolayer; CO is the initial concentration in the donor chamber (μM).

The target in another data set is human BACE1 (Homo sapiens, UniProt P56817). Put plainly: BACE1 binding assay (SPA-based radioligand binding). As to conditions: pH 4.5, 10 nM radioligand, Ki=IC50/(1+L/Kd). Set-up: biotin (biotinylated form); made in house; host or cells: Freestyle HEK293 cells. The protocol:
The binding assay was performed as SPA-based assay using a biotinylated form of human BACE1 recombinantly expressed and subsequently purified from Freestyle HEK293 cells. The binding assay was run in a 50 mM sodium acetate buffer, pH 4.5 containing 50 mM NaCl and 0.03% Tween-20 in white clear bottom 384 plates (Corning #3653). 10 nM (final concentration) radioligand ([^3H]—N-((1S,2R)-1-benzyl-3-cyclopropylamino-2-hydroxy-propyl)-5-(methanesulfonyl-methyl-amino)-N—((R)-1-phenyl-ethyl)-isophthalamide) (TRQ11569 purchased from GE Healthcare) was mixed with test compound at a given concentration, 6 nM (final concentration) human BACE1 and 25 μg Streptavidin coated PVT core SPA beads (RPNQ0007, GE Healthcare Life Sciences) in a total volume of 40 μl. Several concentrations of each test compound were tested in the assay for […] determination. The plates were incubated for one hour at room temperature and counted in a Wallac Trilux counter. Total and non-specific binding were determined using buffer and 1 μM (final concentration) of the high affinity BACE1 reference inhibitor (S)-6-[3-chloro-5-(5-prop-1-ynyl-pyridin-3-yl)-thiophen-2-yl]-2-imino-3,6-dimethyl-tetrahydro-pyrimidin-4-one, respectively. For each test compound, a 1050 value (the concentration mediating 50% inhibition of the specific binding of the radioligand) was determined from concentration-response curve and used to calculate the Ki from the equation Ki=IC50/(1+L/Kd), where L and Kd are the final concentration of the radioligand used in the assay and the dissociation constant of the radioligand, respectively. The Kd of the radioligand was determined from saturation binding experiments.

Data set [1] can be described thus: Compound exposure in rat brain and plasma after oral dosing (DMPK analysis). The data set is classed as in vivo. Particulars: male, Sprague Dawley, 3 hours post dose; for concentration at 3 h: read-out: Exp (exposure); for Kp at 3 h: brain/plasma, read-out: Brain/Plasma ratio. The protocol: (§1) Young adult Male Sprague Dawley rats of approximately 250 g weight were purchased from Charles River and received 0-30 mg/kg of vehicle (10% HP betaCD+1M MeSO4, pH 2.5) or test compounds (dissolved in vehicle) only by oral gavage (p.o). The compounds are dosed at a volume of 5 ml/kg. Cohorts of 5-10 animals were established for each treatment condition.
(§2) At T=180 minutes after initial dosing the animals were stunned and decapitated with a guillotine. Trunk-blood was sampled in EDTA coated tubes after decapitation of the animal. The blood was centrifuged at 2200G at 4° C. for 15 minutes and the plasma was collected and frozen at −80° C. The blood was aliquoted for Aβ ELISA and DMPK analysis. Immediately following sacrifice, the brain was extracted and split into 2 halves. The right hemibrains were snap frozen on dry ice and stored at −80° C. The left half was dissected; with the front forebrain taken for Aβ ELISA and the remainder used for DMPK analysis. These samples were also snap frozen on dry ice and stored at −80° C. until use for analysis.
The results of the administration of representative Compounds of Examples 1, 2, 5, […], of brain and plasma samples collected at 3 hours post dose and then following exposures, as described above, are tabulated below.

For a further data set, the system named is Aβ40 peptide. Kind of data set: Assessment of Aβ peptide levels in rat brain and plasma following BACE1 inhibition (Aβ40 ELISA). The format is in vivo. As to conditions: 3 hours post dose, vs vehicle. The protocol:
Assessment of Aβ Peptide Levels in Rat Brain and Plasma Following BACE1 Inhibition. Animals.
as §1, §2
The cortex samples were thawed slightly on wet ice before they were homogenized with a small volume dispersing instrument (T10 basic ULTRA-TURRAX®) which was set at speed 5 for approximately 5-7 sec. The tissue was processed in a 10 times volume of the weight, for example 100 mg of tissue was homogenized in 1000 μL of Homogenization buffer. Homogenization buffer: 50 ml Milli Q water+50 nM NaCl+0.2% Diethylamin (DEA)+1 tablet of Complete Protease inhibitor cocktail+1 nM 4-(2-aminoethyl) benzenesulfonyl fluoride hydrochloride irreversible serine protease inhibitor (AEBSF).
After homogenization 450 μL aliquots of the samples are collected into a 1.5 ml Eppendorf tube and placed on wet ice, 0.5% NP-40 (50 ul) was added to all samples and then they were incubated on ice for 30 min. After which all samples were sonicated using an Ultrasonic homogenizer with 20 kHz homogeneous sound (SONOPLUS HD2070, Bandelin Electronic) 10 pulse set at 12-13% power to extract all the Aβ species. The samples were then centrifuged (Ole Dich 157 MPRF Micro centrifuge) at 20000G for 20 minutes at 4° C. After centrifugation 285 μL of the supernatant was pipetted into 600 μL microtubes tubes and neutralized with 15 μL of 1M Tris-HCL buffer.
WAKO 294-62501 Human/Rat Abeta amyloid (40) kit was used for all ELISA analyses. 30 μL plasma samples or 30 μL of the cortex supernatants generated as described above were placed in 600 μL microtubes tubes on wet ice. To this 30 μL of 8M urea (AppliChem A1049, 9025) was added to generate a 2-fold dilution. Both plasma and cortex supernatants were incubated on ice for 30 min. Standard rows were prepared from the standard peptide stock provided in the kit and standard diluent containing 1.6M urea (200 μL 8M urea+800 μL of standard diluent) and 0.8M urea (400 μL 8M Urea+3600 μL Standard diluent). A serial 2-fold dilution of Aβ40 from 100 pmol/ml to 0 pmol/L was prepared for the assay.
After incubation with urea, all samples were further diluted by addition of 5 times standard diluent from the Kit. This was done by adding 240 μL Standard Diluent to 60 μL sample/urea mixture, which was then mixed well. 100 μL of each diluted sample was pipetted into designated wells of the ELISA plate in duplicates. The plate was then covered and incubated overnight at 4° C. The following day, the ELISA kit was brought to room temperature before use. The incubated plate was washed 5 times with the 20× washing solution diluted in Milli Q water. 100 μL HRP-conjugate was applied to each well, and the plate was covered and incubates at 4° C. for 1 hr. The wash was repeated again for 5 times. 100 μL 3,3′,5,5′-Tetramethylbenzidine (TMB) solution was applied to each well and the plate was covered and incubated in the dark at room temperature for 30 minutes. […]
A general note: An ELISA detects its analyte on a solid surface through an enzyme-linked reagent.

human BACE1, sequence (P56817 46-501): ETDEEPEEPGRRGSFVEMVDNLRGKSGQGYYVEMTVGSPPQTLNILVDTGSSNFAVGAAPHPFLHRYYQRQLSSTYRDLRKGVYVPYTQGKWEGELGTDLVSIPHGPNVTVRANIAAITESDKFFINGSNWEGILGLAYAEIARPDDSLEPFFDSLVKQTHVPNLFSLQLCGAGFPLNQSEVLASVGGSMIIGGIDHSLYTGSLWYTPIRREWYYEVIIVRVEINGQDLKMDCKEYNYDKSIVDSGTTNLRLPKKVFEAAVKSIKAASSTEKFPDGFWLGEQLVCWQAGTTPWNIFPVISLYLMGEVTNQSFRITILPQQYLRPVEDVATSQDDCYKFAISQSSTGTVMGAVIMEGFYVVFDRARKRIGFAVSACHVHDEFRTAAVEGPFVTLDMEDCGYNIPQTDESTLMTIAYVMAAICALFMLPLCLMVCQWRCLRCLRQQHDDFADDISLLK

The efflux ratio is a quotient of directional permeabilities that is used to spot active efflux. The Ki is the equilibrium dissociation constant of an inhibitor or competing ligand from its target. Low readings indicate a stronger hold on the target, high ones a looser hold on the target. Take `C[C@]1(F)C[C@]2(F)COC[C@]2(c2cc(NC(=O)c3cnc(C(F)F)cn3)ccc2F)N=C1N` [Example 3, N-(3-((3S,4aR,7aS)-2-amino-3,4a-difluoro-3-methyl-3,4,4a,5,7,7a-hexahydrofuro[3,4-b]pyridin-7a-yl)-4-fluorophenyl)-5-(difluoromethyl)pyrazine-2-carboxamide]: in the data set with P-gp (MDR1), the efflux ratio at 60 min, 0.5 μM was 0.96. At human BACE1, this compound showed a Ki of 48 nM.
As to `Cc1nc(C(=O)Nc2ccc(F)c([C@]34COC[C@@]3(F)C[C@@](C)(F)C(N)=N4)c2)co1` [Example 10, N-(3-((3R,4aR,7aS)-2-amino-3,4a-difluoro-3-methyl-3,4,4a,5,7,7a-hexahydrofuro[3,4-b]pyridin-7a-yl)-4-fluorophenyl)-2-methyloxazole-4-carboxamide], the efflux ratio at 60 min, 0.5 μM in the data set on P-gp (MDR1) was 2.46. Further, the Ki on human BACE1 was 22 nM.
Taken in the same sequence, the figures for `C[C@]1(F)C[C@]2(F)COC[C@]2(c2cc(NC(=O)c3ccc(Cl)cn3)ccc2F)N=C1N` [Example 6, N-(3-((3S,4aR,7aS)-2-amino-3,4a-difluoro-3-methyl-3,4,4a,5,7,7a-hexahydrofuro[3,4-b]pyridin-7a-yl)-4-fluorophenyl)-5-chloropicolinamide] were 1.01 and 6.4 nM.
With `COc1ccc(C(=O)Nc2cc(F)c(F)c([C@]34COC[C@H]3C[C@@](F)(CF)C(N)=N4)c2)nc1` [Example 25, N-[3-[(3S,4aS,7aS)-2-amino-3-fluoro-3-(fluoromethyl)-4,4a,5,7-tetrahydrofuro[3,4-b]pyridin-7a-yl]-4,5-difluoro-phenyl]-5-methoxy-pyridine-2-carboxamide], the Ki at human BACE1 was 230 nM. This counts as sub-micromolar.
As for `C[C@@]1(F)C[C@]2(F)COC[C@]2(c2cc(NC(=O)c3ccc(Cl)cn3)ccc2F)N=C1N` [Example 14, N-(3-((3R,4aR,7aS)-2-amino-3,4a-difluoro-3-methyl-3,4,4a,5,7,7a-hexahydrofuro[3,4-b]pyridin-7a-yl)-4-fluorophenyl)-5-chloropicolinamide], in the data set with P-gp (MDR1), the efflux ratio at 60 min, 0.5 μM amounted to 0.91. In addition, on human BACE1, the Ki was 9.3 nM.
Taken in the same sequence, the figures for `C[C@@]1(F)C[C@]2(F)COC[C@]2(c2cc(NC(=O)c3cnc(C(F)F)cn3)ccc2F)N=C1N` [Example 8, N-(3-((3R,4aR,7aS)-2-amino-3,4a-difluoro-3-methyl-3,4,4a,5,7,7a-hexahydrofuro[3,4-b]pyridin-7a-yl)-4-fluorophenyl)-5-(difluoromethyl)pyrazine-2-carboxamide] were 1.23 and 14 nM.
`[2H]C([2H])([2H])Oc1cnc(C(=O)Nc2ccc(F)c([C@]34COC[C@@]3(F)C[C@@](C)(F)C(N)=N4)c2)cn1` [Example 13, N-(3-((3R,4aR,7aS)-2-amino-3,4a-difluoro-3-methyl-3,4,4a,5-tetrahydrofuro[3,4-b]pyridin-7a-yl)-4-fluorophenyl)-5-(methoxy-d3)pyrazine-2-carboxamide] yielded a Ki on human BACE1 of 29 nM.
For the compound `[2H]C([2H])([2H])Oc1ccc(C(=O)Nc2ccc(F)c([C@]34COC[C@@]3(F)C[C@](C)(F)C(N)=N4)c2)nc1` [Example 1, N-(3-((3S,4aR,7aS)-2-amino-3,4a-difluoro-3-methyl-3,4,4a,5-tetrahydrofuro[3,4-b]pyridin-7a-yl)-4-fluorophenyl)-5-(methoxy-d3)picolinamide], the concentration at 3 h turned out to be 194 ng/g in data set [1] (Brain, 10 mg/kg p.o.); 951 ng/g in data set [1] (Brain, 30 mg/kg p.o.); 184 ng/g in data set [1] (Plasma, 10 mg/kg p.o.); 634 ng/g in data set [1] (Plasma, 30 mg/kg p.o.). In addition, the Kp at 3 h came to 1.06 in data set [1] (10 mg/kg p.o.) and 1.5 in data set [1] (30 mg/kg p.o.). The Aβ40 reduction in the data set with Aβ40 peptide (Brain, 10 mg/kg p.o.) is 34%; in the data set with Aβ40 peptide (Brain, 30 mg/kg p.o.) it was 54%; with Aβ40 peptide (Plasma, 10 mg/kg p.o.), 38%; with Aβ40 peptide (Plasma, 30 mg/kg p.o.), 52%.
In turn, `NC1=N[C@@]2(c3cc(NC(=O)c4ccc(F)cn4)cc(F)c3F)COC[C@H]2C[C@]1(F)CF` [Example 19, N-[3-[(3R,4aS,7aS)-2-amino-3-fluoro-3-(fluoromethyl)-4,4a,5,7-tetrahydrofuro[3,4-b]pyridin-7a-yl]-4,5-difluoro-phenyl]-5-fluoro-pyridine-2-carboxamide] showed a Ki at human BACE1 of 340 nM.
For the compound `Cc1csc(C(=O)Nc2ccc(F)c([C@]34COC[C@@]3(F)C[C@@](C)(F)C(N)=N4)c2)n1` [Example 9, N-(3-((3R,4aR,7aS)-2-amino-3,4a-difluoro-3-methyl-3,4,4a,5,7,7a-hexahydrofuro[3,4-b]pyridin-7a-yl)-4-fluorophenyl)-4-methylthiazole-2-carboxamide], in the data set with P-gp (MDR1), the efflux ratio at 60 min, 0.5 μM is 1.33. Moreover, the Ki on human BACE1 amounted to 23 nM.
